Reference: the supplement of paper PMC10307832

Assays:
Crizotinib + Linsitinib = compound: C[C@@H](Oc1cc(-c2cnn(C3CCNCC3)c2)cnc1N)c1c(Cl)ccc(F)c1Cl [Crizotinib] + C[C@]1(O)C[C@@H](c2nc(-c3ccc4ccc(-c5ccccc5)nc4c3)c3c(N)nccn32)C1 [Linsitinib] (partner 1 µM); assay: relative viability (nuclei count vs DMSO), 5 days (fraction); higher = more cells survive
In short: (§1)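 One day after seeding in 1536-well plates, lung cancer cell lines were dosed by pin tool. Dosing was either single-drug or a fixed anchor-drug dose plus five library-drug doses (not always all listed) in √10 steps. After 5 days, nuclei were stained in one fix-and-stain step and counted on 4× images, and relative viability is the nuclei count of treated wells over that of vehicle wells, given as the median of duplicate plates.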

Crizotinib + Alpelisib = compound: C[C@@H](Oc1cc(-c2cnn(C3CCNCC3)c2)cnc1N)c1c(Cl)ccc(F)c1Cl [Crizotinib] + Cc1nc(NC(=O)N2CCC[C@H]2C(N)=O)sc1-c1ccnc(C(C)(C)C(F)(F)F)c1 [Alpelisib] (partner 2 µM); assay: as above
In short: as §1

Work on SW 1573 yielded a relative viability (Crizotinib + Linsitinib; first compound 0.01 µM) of 0.707, a relative viability (Crizotinib + Linsitinib; first compound 0.03162 µM) of 0.73 and a relative viability (Crizotinib + Linsitinib; first compound 0.1 µM) of 0.802. The relative viability (Crizotinib + Linsitinib; first compound 0.3162 µM) was 0.802, the relative viability (Crizotinib + Alpelisib; first compound 0.01 µM) was 0.663 and the relative viability (Crizotinib + Alpelisib; first compound 0.03162 µM) was 0.896. For the same cell line, the relative viability (Crizotinib + Alpelisib; first compound 0.1 µM) was 0.638, the relative viability (Crizotinib + Alpelisib; first compound 0.3162 µM) was 0.732 and the relative viability (Crizotinib + Alpelisib; first compound 1 µM) was 0.779.

UMC-11 was tested, and the relative viability (Crizotinib + Linsitinib; first compound 0.03162 µM) was 1.04, the relative viability (Crizotinib + Linsitinib; first compound 0.3162 µM) was 1.16 and the relative viability (Crizotinib + Linsitinib; first compound 1 µM) was 0.96. It also gave a relative viability (Crizotinib + Alpelisib; first compound 0.01 µM) of 0.961, a relative viability (Crizotinib + Alpelisib; first compound 0.03162 µM) of 0.921 and a relative viability (Crizotinib + Alpelisib; first compound 0.1 µM) of 0.968. It also gave a relative viability (Crizotinib + Alpelisib; first compound 0.3162 µM) of 0.956 and a relative viability (Crizotinib + Alpelisib; first compound 1 µM) of 0.974.
